Experimental data taken from patent US20260137706A1, “METHODS OF TREATING INFLAMMATORY DISEASES” (INTERLINE THERAPEUTICS, INC., priority 2023, published 2026).
Read-outs that look alike come from different tables or passages of the source.

Legend:
[1] = system: NF-κB pathway (SEAP) in THP1-Dual cells; experiment: THP-1 Dual cell SEAP assay (L18-MDP stimulated); type: cell-based; conditions: Homo sapiens, THP1-Dual, read-out: NF-κB THP1 IC50 bin
In short: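 THP1-Dual cells (~25,000/well) were preincubated 30 min with serially diluted compounds, then stimulated with 10 ng/mL L18-MDP (final) for 20-24 h at 37 °C. Supernatant SEAP was read with QUANTI-Blue at OD 620-655 nm after 2 h. IC50 came from non-linear fits of % inhibition versus DMSO/L18-MDP controls after media-blank subtraction.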

[2] = molecular target: T1, GST-RIPK2 fusion protein (human RIPK2, amino acids 1-310) (Homo sapiens, UniProt O43353); experiment: RIPK2 binding competition assay (TR-FRET, Tracer 199 displacement); conditions: 10 nM Tracer 199, 1 nM GST-RIPK2, read-out: RIPK2 IC50
T1 construct: made in house; host or cells: baculovirus infected Sf9 cells
In short: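 GST-RIPK2 (human aa 1-310, Sf9-expressed; final 1 nM) with Tracer 199 (final 10 nM) and Tb-anti-GST (final 0.5 nM) in Tris pH 7.5 buffer, 45 min at 22 °C. TR-FRET 665/620 nm ratio after 337 nm excitation; normalized to no-inhibitor (0%) and no-protein (−100%), giving IC50.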

[3] = molecular target: T2, binding of His-XIAP(BIR2)-avi fusion protein to GST-RIPK2 fusion protein (RIPK2/XIAP) (Homo sapiens, UniProt O43353); experiment: RIPK2-XIAP binding competition PPI assay (TR-FRET); conditions: for Emax: read-out: PPI Amax bin; for IC50: read-out: PPI IC50 bin
T2 construct: made in house; host or cells: baculovirus infected Sf9 cells
In short: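 Compounds (in DMSO, 100-fold stock) incubated 120 min at 23 °C with 1 nM GST-RIPK2 (aa 1-310) and 25 nM His-XIAP(BIR2 aa 152-231)-avi, plus anti-His-XL665 and anti-GST-Tb, in pH 7.5 Tris buffer. Read-out: 665/520 nm emission ratio. Normalized to no-inhibitor (0%) and 50 nM GSK583 (−100%); Amax binned A–D.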

[4] = RIPK2/XIAP binding competition PPI assay, Amax
[5] = RIPK2/XIAP binding competition PPI assay

T2 sequence (O43353 1-310 limits assumed): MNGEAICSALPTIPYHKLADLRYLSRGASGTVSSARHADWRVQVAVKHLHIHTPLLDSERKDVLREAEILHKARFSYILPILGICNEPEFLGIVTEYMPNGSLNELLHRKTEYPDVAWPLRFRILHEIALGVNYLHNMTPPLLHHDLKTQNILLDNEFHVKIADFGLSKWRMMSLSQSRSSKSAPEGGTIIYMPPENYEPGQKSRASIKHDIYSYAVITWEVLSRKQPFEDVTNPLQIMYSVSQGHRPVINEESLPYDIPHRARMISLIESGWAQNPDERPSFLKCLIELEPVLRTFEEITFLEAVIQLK
T1 sequence (O43353 1-310): as the sequence (O43353 1-310 limits assumed) above

SMILES | IC50 [1] | IC50 [2] | Emax [3, 4] | IC50 [3, 5] | Emax [3]
COc1cc2ncc(-c3cc(F)c(N)nc3F)n2cc1S(=O)(=O)C(C)(C)CCCO [Example 63, 4-((3-(6-amino-2,5-difluoropyridin-3-yl)-7-methoxyimidazo[1,2-a]pyridin-6-yl)sulfonyl)-4-methylpentan-1-ol] | > 1000 nM | 2.5 to 20 nM | > 80% | 2.5 to 20 nM | –
COc1cc2ncc(-c3cc4cn[nH]c4cn3)n2cc1S(=O)(=O)C(C)(C)C [Example 11, 5-(6-(tert-butylsulfonyl)-7-methoxyimidazo[1,2-a]pyridin-3-yl)-1H-pyrazolo[3,4-c]pyridine] | < 50 nM | 2.5 to 20 nM | – | > 20 nM | < 30%
C[C@@H](O)COc1cn2ncc(-c3cc(Cl)c(N)nc3F)c2cc1S(=O)(=O)C(C)(C)C [Example 254, (R)-1-((3-(6-amino-5-chloro-2-fluoropyridin-3-yl)-5-(tert-butylsulfonyl)pyrazolo [1,5-a]pyridin-6-yl)oxy)propan-2-ol] | 50 to 250 nM | 1 to 2.5 nM | > 80% | 1 to 2.5 nM | –
CC(C)(C)S(=O)(=O)c1cn2c(-c3cc(F)c(N)nc3F)cnc2cc1OC[C@H]1C[C@H](O)C1 [Example 197, (1r,3r)-3-(((3-(6-amino-2,5-difluoropyridin-3-yl)-6-(tert-butylsulfonyl)imidazo [1,2-a]pyridin-7-yl)oxy)methyl) cyclobutan-1-ol] | 50 to 250 nM | < 1 nM | > 80% | < 1 nM | –
COc1cc2ncc(-c3cccc(NS(=O)(=O)C4CNC4)c3)n2cc1S(=O)(=O)C(C)(C)C [Example 156, N-(3-(6-(tert-butylsulfonyl)-7-methoxyimidazo[1,2-a]pyridin-3-yl)phenyl)azetidine-3-sulfonamide] | > 1000 nM | > 20 nM | > 80% | > 20 nM | –
COc1cc2ncc(-c3cnc4c(c3)OCCN4C)n2cc1S(=O)(=O)C(C)(C)C [Example 123, 7-(6-(tert-butylsulfonyl)-7-methoxyimidazo[1,2-a]pyridin-3-yl)-4-methyl-3,4-dihydro-2H-pyrido[3,2-b][1,4]oxazine] | > 1000 nM | > 20 nM | 30 to 55% | > 20 nM | –
COc1cc2ncc(-c3cc(F)c(OC)c(NS(=O)(=O)c4cccnc4)c3)n2cc1S(=O)(=O)C(C)(C)C [Example 141, N-(5-(6-(tert-butylsulfonyl)-7-methoxyimidazo[1,2-a]pyridin-3-yl)-3-fluoro-2-methoxyphenyl)pyridine-3-sulfonamide] | < 50 nM | < 1 nM | > 80% | < 1 nM | –
COc1cc2ncc(-c3cccc(NS(=O)(=O)C4(CO)CC4)c3)n2cc1S(=O)(=O)C(C)(C)C [Example 179, N-(3-(6-(tert-butylsulfonyl)-7-methoxyimidazo[1,2-a]pyridin-3-yl)phenyl)-1-(hydroxymethyl)cyclopropane-1-sulfonamide] | > 1000 nM | 2.5 to 20 nM | 55 to 80% | 2.5 to 20 nM | –
COc1cc2ncc(-c3cc(F)c(OC)c(NS(=O)(=O)c4cnc(O)nc4)c3)n2cc1S(=O)(=O)C(C)(C)C [Example 248, N-(5-(6-(tert-butylsulfonyl)-7-methoxyimidazo[1,2-a]pyridin-3-yl)-3-fluoro-2-methoxyphenyl)-2-hydroxypyrimidine-5-sulfonamide] | > 1000 nM | 2.5 to 20 nM | 55 to 80% | 2.5 to 20 nM | –
COc1cc2ncc(-c3cc(F)c(OC)c4c3cnn4CCO)n2cc1S(=O)(=O)C(C)(C)C [Example 121, 2-(4-(6-(tert-butylsulfonyl)-7-methoxyimidazo[1,2-a]pyridin-3-yl)-6-fluoro-7-methoxy-1H-indazol-1-yl)ethan-1-ol] | > 1000 nM | > 20 nM | 55 to 80% | > 20 nM | –
C[C@H](O)COc1cc2ncc(-c3cc(F)c(N)nc3F)n2cc1S(=O)(=O)C(C)(C)C [Example 170, (S)-1-((3-(6-amino-2,5-difluoropyridin-3-yl)-6-(tert-butylsulfonyl)imidazo[1,2-a]pyridin-7-yl)oxy)propan-2-ol] | 50 to 250 nM | 1 to 2.5 nM | > 80% | 1 to 2.5 nM | –
COc1cc2ncc(-c3cc(F)c(OC)c4[nH]c(CCO)nc34)n2cc1S(=O)(=O)C(C)(C)C [Example 184, 2-(4-(6-(tert-butylsulfonyl)-7-methoxyimidazo[1,2-a]pyridin-3-yl)-6-fluoro-7-methoxy-1H-benzo[d]imidazol-2-yl)ethan-1-ol] | 250 to 1000 nM | 1 to 2.5 nM | 30 to 55% | 1 to 2.5 nM | –
COc1cc2ncc(-c3cc(F)c(OC)c(NS(=O)(=O)c4cnn(C)c4C)c3)n2cc1S(=O)(=O)C(C)(C)C [Example 280, N-(5-(6-(tert-butylsulfonyl)-7-methoxyimidazo[1,2-a]pyridin-3-yl)-3-fluoro-2-methoxyphenyl)-1,5-dimethyl-1H-pyrazole-4-sulfonamide] | 50 to 250 nM | 1 to 2.5 nM | > 80% | 1 to 2.5 nM | –
CC(C)(C)S(=O)(=O)c1cc2c(-c3cc(F)c(N)nc3F)cnn2cc1OCC(O)CO (centres unmarked) [Example 246, 3-((3-(6-amino-2,5-difluoropyridin-3-yl)-5-(tert-butylsulfonyl)pyrazolo [1,5-a]pyridin-6-yl)oxy)propane-1,2-diol] | 50 to 250 nM | 1 to 2.5 nM | > 80% | 1 to 2.5 nM | –
COc1cc2ncc(-c3cc(F)c(OC)c(NS(=O)(=O)c4cnn(C)c4)c3)n2cc1S(C)(=O)=O [Example 214, N-(3-fluoro-2-methoxy-5-(7-methoxy-6-(methylsulfonyl)imidazo[1,2-a]pyridin-3-yl)phenyl)-1-methyl-1H-pyrazole-4-sulfonamide] | 50 to 250 nM | < 1 nM | > 80% | < 1 nM | –
C[C@@H](O)COc1cc2ncc(-c3cc4cc[nH]c4nc3F)n2cc1S(=O)(=O)C(C)(C)C [Example 251, (R)-1-((6-(tert-butylsulfonyl)-3-(6-fluoro-1H-pyrrolo[2,3-b]pyridin-5-yl)imidazo[1,2-a]pyridin-7-yl)oxy)propan-2-ol] | < 50 nM | < 1 nM | > 80% | < 1 nM | –
COc1cc2ncc(-c3ccc4c(c3)OCC4O)n2cc1S(=O)(=O)C(C)(C)C (centres unmarked) [Example 86, 6-(6-(tert-butylsulfonyl)-7-methoxyimidazo[1,2-a]pyridin-3-yl)-2,3-dihydrobenzofuran-3-ol] | > 1000 nM | > 20 nM | < 30% | > 20 nM | –
CCOc1cc2ncc(-c3cc4cc[nH]c4nc3F)n2cc1S(=O)(=O)C(C)C [Example 238, 7-ethoxy-3-(6-fluoro-1H-pyrrolo[2,3-b]pyridin-5-yl)-6-(isopropylsulfonyl) imidazo[1,2-a]pyridine] | 50 to 250 nM | 1 to 2.5 nM | > 80% | 1 to 2.5 nM | –
CCCS(=O)(=O)Nc1cc(-c2cnn3cc(OC)c(S(=O)(=O)C(C)(C)CO)cc23)cc(F)c1OC [Example 132] | < 50 nM | < 1 nM | > 80% | < 1 nM | –
CC(C)(C)S(=O)(=O)c1cn2c(-c3cc(F)c(N)nc3F)cnc2cc1OC1CCN(CCO)C1 (centres unmarked) [Example 43, 2-(3-((3-(6-amino-2,5-difluoropyridin-3-yl)-6-(tert-butylsulfonyl)imidazo[1,2-a]pyridin-7-yl)oxy)pyrrolidin-1-yl)ethan-1-ol] | > 1000 nM | 2.5 to 20 nM | > 80% | 2.5 to 20 nM | –
COc1c(F)cc(-c2cnn3cc(OCCO)c(S(=O)(=O)C(C)(C)C)cc23)cc1NS(=O)(=O)c1cnn(C)c1 [Example 226, N-(5-(5-(tert-butylsulfonyl)-6-(2-hydroxyethoxy)pyrazolo [1,5-a]pyridin-3-yl)-3-fluoro-2-methoxyphenyl)-1-methyl-1H-pyrazole-4-sulfonamide] | < 50 nM | < 1 nM | > 80% | < 1 nM | –
CCS(=O)(=O)Nc1cc(-c2cnc3cc(OCCO)c(S(=O)(=O)C(C)(C)C)cn23)cc(F)c1OC [Example 224, N-(5-(6-(tert-butylsulfonyl)-7-(2-hydroxyethoxy)imidazo [1,2-a]pyridin-3-yl)-3-fluoro-2-methoxyphenyl) ethanesulfonamide] | < 50 nM | < 1 nM | > 80% | < 1 nM | –
COc1cc2ncc(-c3cc(F)c(OC)c(NS(=O)(=O)CC4COC4)c3)n2cc1S(=O)(=O)C(C)(C)C [Example 160, N-(5-(6-(tert-butylsulfonyl)-7-methoxyimidazo[1,2-a]pyridin-3-yl)-3-fluoro-2-methoxyphenyl)-1-(oxetan-3-yl)methanesulfonamide] | < 50 nM | < 1 nM | > 80% | < 1 nM | –
